Values after ≈ are worked out from the molar mass of the structure shown. Values joined by “and” are separate entries in the source; they are usually repeats but may differ in a detail not shown here. Identical values can stand only once. Like-named read-outs stand apart in the source and are kept apart here.
Key:
[1] = tested on: S. aureus MW2 wild-type; assay: Checkerboard titration end-point bactericidal assay (MBC), Muller-Hinton agar; type: cell-based, Staphylococcus aureus; conditions: for MBC: Staphylococcus aureus, MW2WILDTYPE
Experimental: FIGS. 15A-15B show checkerboard assays for determining bactericidal assay. Serial two-fold dilutions of 2 mM of Inh2-B1 (MW=411.58 g/mol) and (A) 3 mM ceftriaxone (MW=669.7 g/mol) were made in two separate 96-well plates in vertical (B1-B12 to H1-H2 wells) and horizontal (A2-H2 to A12-H12 wells) directions respectively. Serially diluted Inh2-B1 (100 μL) in the individual well was then mixed with the 100 μL serially diluted ceftriaxone present in the corresponding wells. The resulting various combinations of Inh2-B1 (starting from 1 mM) and ceftriaxone (starting from 1.5 mM) or cefotaxime (2.1 mM) as well as serially diluted one Inh2-B1 (B1 to H1) and ceftriaxone (A2-A12) or cefotaxime (A2-A12) were then incorporated in Muller-Hinton mini agar plates (2 mL). The agar plates were then seeded and diluted S. aureus MW2-wild-type culture equivalent to approximately 23±3 CFU. This checkerboard assay was used to determine the ideal combination of lowest concentration of Inh2-B1 and ceftriaxone that kills 99.9% of the wild-type MW2.
Since the STK1 is not essential for bacterial survival and its absence results in retardation of growth, an end-point bactericidal assay was done, employing the Checkerboard titration method followed by a time-to-kill assay using the broth dilution method. The 96-well plate-based checkerboard titration assays were performed using the fixed number of CFUs of MW2 strain, and the survival of the bacteria was measured on solid agar plates as an end-point result. […] The cut-off value to designate clinical isolates of S. aureus for antibiotics, including Ceftriaxone (TX) and Cefotaxime (CT) as susceptible, is less than 4 μg/ml (i.e., <4.8 μM of TX, and <7 μM of CT). […] CFU counts of MW2-WT grown in the presence of various concentrations of Inh2-B1 were examined over a period of 16 h. […] Similarly, it was also determined CFU counts of MW2-WT and MW2ΔSTK1 strains each grown in the absence or the presence of 50 μM of Inh2-B1 and 1.5 μM Ceftriaxone (1 μg/ml) or […] Cefotaxime (1 μg/ml) for 16 h employing the broth dilution method. […] Further, to address whether MW2 or STK1 could become refractory to a potential combined therapy, the S. aureus MW2 wild-type strain was grown in the presence of suboptimal dose of Inh2-B1 alone and combination with Ceftriaxone and Cefotaxime (25 μM Inh2-B1 and 3 μM of Ceftriaxone or 3 μM Cefotaxime) for consecutive 10 generations.
(§1) Subsequently, the susceptibility of S. aureus MW2 strain to Ceftriaxone, Cefotaxime, Inh2, and Inh2-B1 was confirmed by the CLSI recommended serial dilution method using Muller Hinton broth. Minimum bactericidal activity (MBC) was measured using Muller-Hinton agar. Changes in the MBC of Ceftriaxone/Cefotaxime in the presence of serially diluted Inh2-B1 was determined in two steps. Initial screening was carried out using the Checkerboard method using Muller-Hinton agar (FIG. 15). […] Subsequent time to kill assays were carried out using 50 μM Inh2-B1 and Ceftriaxone. Cefotaxime (1 μg/ml) in a final volume of 250 μl using a sterile 96-well (U-bottom) microtiter plate over a period of 16 h at 37° C. under constant rotation (120 rpm). Optical density and corresponding CFU counts were measured at every two-hour interval up to 8 hours with a final overnight reading at the end of incubation period. CFU counts were measured using appropriate dilution of 10 μl of properly mixed samples at each time interval.

[2] = tested on: S. aureus MW2-WT; assay: microbe, parasite or virus in culture; type: cell-based, Staphylococcus aureus; conditions: Staphylococcus aureus, MW2WT
[3] = tested on: S. aureus MW2ΔSTK1 mutant; assay: E-test antibiotic susceptibility (MIC), Muller-Hinton agar; type: cell-based; conditions: Staphylococcus aureus
[4] = tested on: S. aureus MW2-WT; assay: S. aureus mouse septicemia model, therapeutic study; type: in vivo, CD-1 mice; conditions: only Cefotaxime 10 mg/kg
Experimental: The virulence potential of the wild-type S. aureus MW2 wild-type and corresponding MW2ΔSTK1 and MW2ΔSTP1 mutants was assessed using the mouse-septicemia model. CD-1 mice (5 weeks old, 20-22 g. Charles River Laboratories, ten female mice/group and housed in a group of 5 mice/cage) were lightly anesthetized with isoflurane and injected retro-orbitally with the S. aureus MW2 or isogenic MW2Δstk1 mutant (4×10^8 CFU/0.1 ml of PBS). […] For therapeutic studies, the animals were first challenged with MW2-WT strain as described above and subsequently administered with antibiotic and/or small molecule compounds. The latter was started 4 h after the challenge and subsequently 12 h apart for 4 days post infection. Thus, Inh2-B1 (5 mg/kg body weight in 0.3 ml vehicle buffer), Ceftriaxone (10 and 25 mg/kg body weight in 0.3 ml vehicle buffer). Cefotaxime (10 mg/kg body weight), combination of Ceftriaxone (10 mg and 25 mg/kg body weight in 0.3 ml vehicle buffer) or Cefotaxime (10 mg/kg body weight) with Inh2-B1 (5 mg/kg body weight in 0.3 ml vehicle buffer), or 0.3 ml of vehicle-buffer (50 mM Tris/HCl, pH 8.8, 1.67% [v/v] DMSO). Early removal and euthanasia criteria were applied to all experimental mice showing penultimate sign(s) of the unrecoverable stage of illness, including ruffled skin with a hunch back, loss of more than 20% of body mass as compared to unchallenged mice receiving mock treatment, dyspnea, and labored gasping. All experiments were performed twice. Data were combined, and percentage survival in each group was statistically evaluated by the Log-Rank test (Kaplan-Meier) using the GraphPad Prism 6 software. P<0.05 was treated as a significant difference. On Day 3 P.I., 3-6 mice from different groups receiving treatment with a single antibiotic or combination therapy were euthanized and sacrificed, and kidneys were […] for determining the bacterial load, which was determined by counting the colony forming units in the homogenized tissue in sterile PBS buffer.

[5] = tested on: S. aureus MW2-WT; assay: Time-to-kill assay (OD and CFU counts over 16 h), broth dilution; type: cell-based, Staphylococcus aureus; conditions: only 50 μM Inh2-B1, only 1.5 μM Ceftriaxone (1 μg/ml) or only 3 μM Cefotaxime (1 μg/ml), 16 h
Experimental: FIGS. 4A-F show. […] Optical Density and corresponding Colony forming units of (C and D) MW2-WT and (E and F) MW2ΔSTK1 cultures in the presence or absence 50 μM Inh2-B1, 1.51 μM (1 μg/ml) Ceftriaxone, 2.125 μM (1 μg/ml) Cefotaxime, and combination of Inh2-B1 plus Ceftriaxone, and Inh2-B1 plus Cefotaxime. The experiments were carried out as described in the Materials and Method section using Muller-Hinton broth and seeded with 4×10^6 CFUs of S. aureus MW2-Wild type or MW2ΔSTK1 strains per well. Each data points represent Mean±S.D. P values of significance (**=<0.01, ***=<0.001) were determined using the t-test with Welch's corrections. NS—Not significant.
as §1, with “interval. All experiments were performed in three biological replicates and the statistical analysis of the results obtained at each time point was carried out by the non-parametric t-test with Welch's correction using GraphPad Prism 6 software.” for “interval.”

[6] = tested on: S. aureus MW2ΔSTP1 mutant; assay: E-test antibiotic susceptibility (MIC), Muller-Hinton agar; type: cell-based; conditions: Staphylococcus aureus
[7] = tested on: cell wall hydrolase genes in S. aureus MW2-WT; assay: qRT-PCR mRNA expression of cell wall hydrolase genes; type: cell-based, Staphylococcus aureus; conditions: treated MW2-WT vs untreated
Experimental: The late log phase-grown S. aureus strains MW2 wild-type, and isogenic ΔSTK1 and ΔSTP1 mutant strains, as well as S. aureus MW2 strain treated with 25 μM Inh2-B1 for 4 h, were subjected to lysostaphin treatment to obtain whole cell lysate. Total RNA from the resulting lysate was first extracted by TRIZOL™ (Invitrogen/Thermo) and treated with RNase-free DNaseI. High-quality total RNA (RIN>7.0, and 260/280 and 260/230 ratios >1.8) was then extracted by using RNA purification kit (Norgen, Canada) per manufacturer's instructions and confirmed by an Agilent 2100 Bioanalyzer (Agilent Technologies, Palo Alto, Calif.). The first-strand cDNA from the total RNA was generated, and relative mRNA concentration was quantitated using SYBR Green qRT-PCR master mix and specific primers, using a Light Cycler® 480 real-time PCR machine (Table 2). The results obtained for all samples (three biological replicates each in triplicates) were normalized to corresponding values of 16S rRNA. All results including relative fold-changes in the mRNA expression (mutant vs. wild-type or treated vs. nontreated) for individual genes were analyzed using Exor4 software (Roche Applied Science). Changes in expression ratios by more than 2-fold (up- or down-regulation) were considered as significant.

[8] = tested on: S. pyogenes SP-STK; assay: In vitro autophosphorylation / kinase activity of SP-STK; type: biochemical; conditions: at 116 μM
[9] = biological target: S. aureus STKK1 (the soluble kinase domain of STK1, 280 aa) (Staphylococcus aureus, UniProt A0ABF7PGK0); assay: In vitro kinase assay: inhibition of autophosphorylation of recombinant STKK1 (γ32P-ATP); type: biochemical; conditions: after 5 min pre-incubation
Experimental: For the present study, recombinant His-tag-STKK1 was created along with part of the adjacent juxta-membrane domain (1-280 aa) using the pET14b vector system and specific primers (Table-1 and Table-2) as described previously. The recombinant proteins were expressed in BL21 DE3 (pLysS) and purified using Ni^+2-NTA-affinity chromatography, dialyzed against 10 mM Tris/HCl, pH 7.5, and stored as 10% glycerol stock (500 μg/ml) at −20° C. as described previously. In vitro kinase assays were performed using 2 μg STKK1 in the presence of 1 μCi γ^32P-ATP (specific activity 3000 Ci/mMol, PerkinElmer) at 30° C. for 45 min in a final volume of 30 μl phosphorylation buffer (50 mM Tris/HCl, pH7.5, 1 mM dithiothreitol, 5 mM MgCl2, and/or 5 mM MnCl2). The inhibition of autophosphorylation of STKK1 was carried out using this assay in the presence and absence of (50 μM) individual members of the 32 prescreened small molecule compound library. Phosphorylated proteins were separated by SDS-PAGE and subsequently identified by using Coomassie stain and autoradiography. The individual phosphorylated protein bands were then excised and subjected to radioactive counting using beta-scintillation counter for quantitative analysis. Experiments were repeated at least three times for statistical analysis.

[10] = tested on: S. pyogenes SP-STK / SP-STKK; assay: Solid-phase ATP affinity chromatography, elution of bound kinase by inhibitor, Western blot; type: binding; conditions: 50 μM inhibitor
Experimental: (§2) An overnight culture of S. aureus MW2 strain was centrifuged, and the resulting bacterial pellet was resuspended in lysostaphin digestion buffer (50 mM Tris/HCl buffer, pH 7.5, containing 5 μg/ml DNAse/RNAse and protease inhibitor cocktail) in 1/10 the volume of the original culture volume. The latter was then subjected to lysostaphin treatment (15 U/ml). The lysostaphin digest was sonicated (5 sec pulse at every 10 sec for 10 min at 50% of 130 W, […]), and the debris free whole cell lysate was obtained after centrifugation (10.000×g, 10 min, 4° C.). […] The column was then washed with ten column volumes of binding buffer. Subsequently, the bound proteins were eluted with the 10-column volume of buffer containing 50 μM Inh-2 and Inh2-B1. S. aureus crude lysate, the last fraction of the column washing step, and eluted fractions were resolved by SDS-PAGE and electroblotted onto a PVDF membrane. […] A similar experiment was performed using S. pyogenes whole cell lysates obtained from phage lysin-digested S. pyogenes M1T1 strain using the anti-SP-STK antibody as described previously using to determine the specificity of the inhibitor for S. aureus STK1.

[11] = tested on: S. aureus STK1 / STKK1; assay: as above; type: binding; conditions: eluted with 50 μM inhibitor, anti-STK1 immunoblot
Experimental: as §2

[12] = tested on: S. aureus MW2; assay: Broth dilution susceptibility / growth inhibition assay, Muller Hinton broth; type: cell-based, Staphylococcus aureus; conditions: Staphylococcus aureus
Experimental: as §1, with “interval. All experiments were performed in three biological replicates and the statistical analysis of the results obtained at each time point was carried out by the non-parametric t-test with Welch's correction using GraphPad Prism 6 software.” for “interval.”

Chain of S. aureus STKK1 (the soluble kinase domain of STK1, 280 aa) (A0ABF7PGK0 entry or part of it): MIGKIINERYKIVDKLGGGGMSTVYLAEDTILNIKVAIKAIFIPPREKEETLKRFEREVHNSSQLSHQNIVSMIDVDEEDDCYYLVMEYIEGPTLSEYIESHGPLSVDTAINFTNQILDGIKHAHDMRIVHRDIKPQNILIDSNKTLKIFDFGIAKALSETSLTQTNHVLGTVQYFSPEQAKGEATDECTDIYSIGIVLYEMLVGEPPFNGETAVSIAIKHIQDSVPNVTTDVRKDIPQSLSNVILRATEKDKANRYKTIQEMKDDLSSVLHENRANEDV

Row | SMILES | MBC ([1]; agent alone, MW2, read-out: Minimum bactericidal concentration (MBC)) | MBC ([1]; in the presence of 50 μM of Inh2-B1, read-out: MBC for MW2 in the presence of Inh2-B1) | concentration up to which growth of MW2 was seen ([1]; agent alone, further analysis) [µM] | concentration of wells with ≥1 CFU of wild-type MW2 ([1]; checkerboard, agent alone) [µM] | fold reduction of MBC ([1]; in the presence of 50 μM of Inh2-B1 vs antibiotic alone) [fold] | MIC [2] [µg/mL] | MIC [3] [µg/mL] | time within which all challenged mice died [4] [h] | growth pattern of the wild-type, single agent [5] | MIC [6] [µg/mL] | expression of cell wall hydrolase-encoding genes [7] | inhibition of autophosphorylation of S. pyogenes SP-STK [8] | IC50 [9] [µM] | elution of SP-STK bound to ATP-column, S. pyogenes whole cell lysate [10] | elution of STK1 bound to ATP-column, whole cell lysate of S. aureus MW2 [11] | IC50 ([12]; MW2, read-out: IC50 concentration for MW2) [µM] | MIC ([12]; MW2, read-out: minimum inhibitory concentration) [µM]
1 | CO/N=C(\C(=O)N[C@@H]1C(=O)N2C(C(=O)O)=C(COC(C)=O)CS[C@H]12)c1csc(N)n1 [Cefotaxime] | 220 µM and 100 µg/mL | 27.5 µM and 12.5 µg/mL | 176 | ≤ 110 | 8 | > 100 | 4 (≈ 8.78 µM) | 36 to 48 | remained unaltered | > 100 | – | – | – | – | – | – | –
2 | Cc1ccc(NC(=O)c2sc(=S)n3c2[nH]c(=O)c2ccccc23)c(C)c1 [Inh2, N-(2,4-Dimethylphenyl)-5-oxo-1-thioxo-4,5-dihydro[1,3]thiazolo[3,4-a]quinazoline-3-carboxamide] | – | – | – | – | – | – | – | – | – | – | down-regulation of cell wall hydrolase-encoding genes | did not inhibit autophosphorylation | 24.5 | did not elute | presence of STK1 | 12 | 48
